Test results as given in patent US20160235069A1, “N-ACRYLIMINO HETEROCYCLIC COMPOUNDS” (BASF SE, priority 2013, published 2016).
Like-named read-outs stand apart in the source and are kept apart here.

How the values were obtained:
Format in all cases: in vivo
[1] = tested on: Myzus persicae; test: Green peach aphid (Myzus persicae), systemic, artificial diet in 96-well plates; conditions: 72 h, read-out: mortality in comparison with untreated controls
Source text: General conditions: If not otherwise specified, most test solutions are to be prepared as follows: The active compound is to be dissolved at the desired concentration in a mixture of 1:1 (vol:vol) distilled water:acteon. Further, the test solutions are to be prepared at the day of use (and, if not otherwise specified, in general at concentrations wt/vol).
For evaluating control of green peach aphid (Myzus persicae) through systemic means, the test unit consists of 96-well-microtiter plates containing liquid artificial diet under an artificial membrane.
The compounds are formulated using a solution containing 75% v/v water and 25% v/v DMSO. Different concentrations of formulated compounds are pipetted into the aphid diet, using a custom built pipetter, at two replications.
After application, 5-8 adult aphids are placed on the artificial membrane inside the microtiter plate wells. The aphids are then allowed to suck on the treated aphid diet and incubated at about 23+1° C. and about 50+5% relative humidity for 3 days. Aphid mortality and fecundity is then visually assessed.

[2] = tested on: Megoura viciae; test: Vetch aphid (Megoura viciae), contact or systemic, broad bean leaf disks; conditions: foliar, 120 h, read-out: mortality in comparison with untreated controls
Protocol: For evaluating control of vetch aphid (Megoura viciae) through contact or systemic means the test unit consisted of 24-well-microtiter plates containing broad bean leaf disks.
The compounds were formulated using a solution containing 75% v/v water and 25% v/v DMSO. Different concentrations of formulated compounds were sprayed onto the leaf disks at 2.5 μl, using a custom built micro atomizer, at two replications.
After application, the leaf disks were air-dried and 5-8 adult aphids were placed on the leaf disks inside the microtiter plate wells. The aphids were then allowed to suck on the treated leaf disks and were incubated at about 23±1° C. and about 50±5% relative humidity for 5 days. Aphid mortality and fecundity was then visually assessed.

[3] = tested on: Aphis gossypii; test: Cotton aphid (Aphis gossypii), sprayed potted plants; conditions: 72 h, read-out: mortality in comparison with untreated controls
[4] = tested on: Aphis craccivora; test: Cowpea aphid (Aphis craccivora), sprayed potted cowpea plants; conditions: 72 h, read-out: mortality in comparison with untreated controls
Protocol: The active compound is dissolved at the desired concentration in a mixture of 1:1 (vol:vol) distilled water: acetone. Surfactant (Alkamuls® EL 620) is added at a rate of 0.1% (vol/vol). The test solution is prepared at the day of use.
Potted cowpea plants are colonized with approximately 50-100 aphids of various stages by manually transferring a leaf tissue cut from infested plant 24 hours before application. Plants are sprayed after the pest population has been recorded. Treated plants are maintained on light carts at about 28° C. Percent mortality is assessed after 72 hours.

[5] = tested on: Dichromothrips corbetti; test: Orchid thrips (Dichromothrips corbetti), floral-immersion technique; conditions: 72 h, read-out: mortality in comparison with untreated controls
Protocol: Dichromothrips corbetti adults used for bioassay are obtained from a colony maintained continuously under laboratory conditions. For testing purposes, the test compound is diluted in a 1:1 mixture of acetone:water (vol:vol), plus 0.01% vol/vol Alkamuls® EL 620 surfactant.
Thrips potency of each compound is evaluated by using a floral-immersion technique. Plastic petri dishes are used as test arenas. All petals of individual, intact orchid flowers are dipped into treatment solution and allowed to dry. Treated flowers are placed into individual petri dishes along with about 20 adult thrips. The petri dishes are then covered with lids. All test arenas are held under continuous light and a temperature of about 28° C. for duration of the assay. After 3 days, the numbers of live thrips are counted on each flower, and along inner walls of each petri dish. The percent mortality is recorded 72 hours after treatment.

[6] = tested on: Nephotettix virescens; test: Rice green leafhopper (Nephotettix virescens), sprayed rice seedlings; conditions: read-out: mortality in comparison with untreated controls
Protocol: Rice seedlings are cleaned and washed 24 hours before spraying. The active compounds are formulated in 50:50 acetone:water (vol:vol), and 0.1% vol/vol surfactant (EL 620) is added. Potted rice seedlings are sprayed with 5 ml test solution, air dried, placed in cages and inoculated with 10 adults. Treated rice plants are kept at about 28-29° C. and relative humidity of about 50-60%. Percent mortality is recorded after 72 hours.

[7] = tested on: Nilaparvata lugens; test: Rice brown plant hopper (Nilaparvata lugens), sprayed rice seedlings; conditions: 72 h, read-out: mortality in comparison with untreated controls
Protocol: Rice seedlings are cleaned and washed 24 hours before spraying. The active compounds is formulated in 50:50 acetone:water (vol:vol) and 0.1% vol/vol surfactant (EL 620) was added. Potted rice seedlings are sprayed with 5 ml test solution, air dried, placed in cages and inoculated with 10 adults. Treated rice plants are kept at about 28-29° C. and relative humidity of about 50-60%. Percent mortality is recorded after 72 hours.

[8] = tested on: Plutella xylostella; test: Diamond back moth (Plutella xylostella), dipped cabbage leaves; conditions: 3rd instar larvae on dipped cabbage leaves, 72 hours after treatment, read-out: mortality in comparison with untreated controls
Protocol: The active compound is dissolved at the desired concentration in a mixture of 1:1 (vol:vol) distilled water: acetone. Surfactant (Kinetic HV) is added at a rate of 0.01% (vol/vol). The test solution is prepared at the day of use.
Leaves of cabbage were dipped in test solution and air-dried. Treated leaves were placed in petri dishes lined with moist filter paper and inoculated with ten 3rd instar larvae. Mortality was recorded 72 hours after treatment. Feeding damages were also recorded using a scale of 0-100%.

[9] = tested on: Anthonomus grandis; test: Boll weevil (Anthonomus grandis), insect diet with eggs in 96-well plates; conditions: 120 h, read-out: mortality in comparison with untreated controls
Protocol: For evaluating control of boll weevil (Anthonomus grandis) the test unit consisted of 96-well-microtiter plates containing an insect diet and 5-10 A. grandis eggs.
The compounds were formulated using a solution containing 75% v/v water and 25% v/v DMSO. Different concentrations of formulated compounds were sprayed onto the insect diet at 5 μl, using a custom built micro atomizer, at two replications.
After application, microtiter plates were incubated at about 25±1° C. and about 75±5% relative humidity for 5 days. Egg and larval mortality was then visually assessed.

C=C(F)C(=O)/N=c1\ccccn1Cc1ccc(Cl)nc1 [Compound E1.3]
≥ 75%: mortality at 2500 ppm [1] | mortality at 2500 ppm [2] | mortality at 500 ppm [3] | mortality at 500 ppm [4] | mortality at 500 ppm [5] | mortality at 500 ppm ([6]; 72 h) | mortality at 500 ppm [7]

C=C(F)C(=O)/N=c1\ccccn1Cc1cnn(C)c1 [Compound E1.16]
≥ 75%: mortality at 2500 ppm ([1]; 2500 ppm, adult aphids on treated diet, 3 days) | mortality at 2500 ppm ([2]; 2500 ppm, adult aphids on sprayed leaf disks, 5 days) | mortality at 500 ppm ([6]; 500 ppm, adults on sprayed rice seedlings, after 72 hours) | mortality at 500 ppm [8]

CC(C)(C)C/C=C(\C#N)C(=O)/N=c1\ccccn1Cc1ccc(Cl)nc1 [Compound E1.28]
≥ 75%: mortality at 2500 ppm [1] | mortality at 2500 ppm [2] | mortality at 500 ppm [4] | mortality at 2500 ppm [9]
